# Literature values as cited in patent US20060024247A1, “Oral care formulations comprising highly bioavailable Coenzyme Q-10 cyclodextrin complex” (BioActives, LLC, priority 2004, published 2006).
smiles,measurement,value
"COC1=C(OC)C(=O)C(C/C=C(\C)CC/C=C(\C)CC/C=C(\C)CC/C=C(\C)CC/C=C(\C)CC/C=C(\C)CC/C=C(\C)CC/C=C(\C)CC/C=C(\C)CCC=C(C)C)=C(C)C1=O [CoQ-10, Coenzyme Q-10]",bioavailability,very poor
same,solubility in water,practically insoluble in water
